Tests used:
Treg cells [1] = assay: Dose-response pharmacodynamics of Treg cells in mice after a single injection (Example 10); assay type: in vivo, mouse
Method: Following a single subcutaneous administration of vehicle (PBS) or P-0511 (1, 0.3, 0.1, or 0.03 mg/kg) to female Balb/C mice (n=5/group), peripheral blood was collected on day −2 as baseline, and post dose on days 3, 5, and 7. On day 7, mice were sacrificed, and spleens were harvested. Blood lymphocyte phenotyping, proliferation and expansion were measured by flow cytometry at each timepoint using fresh whole blood.

Treg cells [2] = assay: Treg proliferation and expansion in mice after a single subcutaneous injection (Example 9); assay type: in vivo, mouse; settings: 0.3 mg/kg single s.c., C57/BL6 mice
Method: IL-2 variant Fc fusion proteins were administered to mice and their ability to preferentially proliferate and expand regulatory T cells (CD4+CD25+FoxP3+ T cells) over effector T cells and NK cells were determined in vivo.
Female C57/BL6 mice (7-week old) were received from Charles River Laboratory and acclimated in house for at least 7 days before the study. Vehicle (PBS), 0.3 mg/kg of each test compounds, or IL-2 benchmark compounds were subcutaneously administered to mice on day 0. Peripheral blood samples were collected into heparin-treated tubes on days 3, 5 and 7 post-treatment. Each group contained 6 mice and baseline blood was collected 2 days prior to the treatment (day −2). After red blood cell lysis, total viable mononuclear blood cells were counted by trypan blue dead cell exclusion method and proceeded to intracellular staining for immune cell phenotype and Ki67 proliferation markers using flow cytometric analysis. Cells were stained separately with two panels of antibodies as listed: 1) anti-mouse Foxp3-FITC, Ki67-PE, anti-mouse CD25-APC and anti-mouse CD4-Percpcy5.5 (1:50 dilution) for CD4+T-regulatory cells (Treg); 2) anti-mouse CD3-FITC, Ki67-PE, anti-mouse CD335-APC and anti-mouse CD8-Percpcy5.5 (1:50 dilution) for CD8+T and NK cells.

## P-0511: IL-2 L19H/S125I/Q126E Fc fusion, SEQ ID NO: 213
Treg cells [1]; 0.03 mg/kg single s.c., Balb/C mice
  proliferation of Treg cells (percentage of Ki67 positive cells): minimal effect
Treg cells [1]; 0.1 mg/kg
  Treg/Tconv ratio at peak, based on cell count: 0.06
Treg cells [1]; 0.1 mg/kg single dose
  Treg as percentage of total lymphocytes at the peak: 1.4%
Treg cells [1]; 0.3 mg/kg
  Treg/Tconv ratio at peak, based on cell count: 0.18
Treg cells [1]; 0.3 mg/kg single dose
  Treg as percentage of total lymphocytes at the peak: 3.1%
Treg cells [1]; 1 mg/kg
  Treg/Tconv ratio at peak, based on cell count: 0.27
Treg cells [1]; 1 mg/kg single dose
  Treg as percentage of total lymphocytes at the peak: 4.5%
Treg cells [1]; 1, 0.3, or 0.1 mg/kg single s.c., Balb/C mice
  proliferation of Treg cells (percentage of Ki67 positive cells): dose-dependent increases
Treg cells [1]; single s.c. dose, Balb/C mice
  expression of Treg functional markers CD25 and FoxP3 (MFI): increased dose-dependently
Treg cells [2]; all measured time points
  Treg/Tconv ratio (Ki67 stimulation and cell counts): most beneficial Treg/Tconv ratio
Treg cells [2]; days 3, 5, 7
  stimulation of Treg cell proliferation and expansion in vivo (in words): stronger in vivo efficacy

From US20220170028A1, “NOVEL INTERLEUKIN-2 VARIANTS AND BIFUNCTIONAL FUSION MOLECULES THEREOF” (Cugene Inc, priority 2019, published 2022)
